Test results published in patent publication US20250228835A1, “PYRIDINYLOXYPYRIDINES AND RELATED COMPOUNDS AND THEIR USE IN TREATING MEDICAL CONDITIONS” (Rectify Pharmaceuticals, Inc., priority 2024, published 2025).

Key:
[1] = biological target: T1, ABCC6 WT (Homo sapiens, UniProt O95255); experiment: ABCC6 WT assay: HiBit protein expression; format: cell-based; details: HEK-293 cells transiently expressing HiBit-tagged ABCC6 WT; 24 h treatment; top concentration 20 μM; read-out: ABCC6 WT EC50, Emax
T1 construct: expressed in transfected cells; host or cells: HEK-293 (transient, Lipofectamine 2000)
How it was run: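 HEK-293 cells transiently transfected with HiBit-tagged human ABCC6 WT cDNA, seeded 24 h post-transfection, treated 24 h at 37° C with ten 2-fold doses (top 20 μM final, 0.15% DMSO). HiBit lytic luminescence reports protein expression; Emax and EC50 derived.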

[2] = biological target: T2, ABCA4 P1380L (Homo sapiens, UniProt P78363, P1380L); experiment: A4 correction dose-response assay: ABCA4 P1380L HiBit protein expression; format: cell-based; details: HEK-293 cells stably expressing HiBit-tagged ABCA4 P1380L; 24 h treatment; top concentration 30 μM; read-out: ABCA4 P1380L EC50, Emax
T2 construct: expressed in transfected cells
How it was run: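 Cells transfected with HiBit-tagged human ABCA4 P1380L cDNA were treated for 24 h at 37°C with an eleven-point dilution series (top final 30 μM, 0.3% DMSO).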

T2 sequence (P78363 whole entry P1380L): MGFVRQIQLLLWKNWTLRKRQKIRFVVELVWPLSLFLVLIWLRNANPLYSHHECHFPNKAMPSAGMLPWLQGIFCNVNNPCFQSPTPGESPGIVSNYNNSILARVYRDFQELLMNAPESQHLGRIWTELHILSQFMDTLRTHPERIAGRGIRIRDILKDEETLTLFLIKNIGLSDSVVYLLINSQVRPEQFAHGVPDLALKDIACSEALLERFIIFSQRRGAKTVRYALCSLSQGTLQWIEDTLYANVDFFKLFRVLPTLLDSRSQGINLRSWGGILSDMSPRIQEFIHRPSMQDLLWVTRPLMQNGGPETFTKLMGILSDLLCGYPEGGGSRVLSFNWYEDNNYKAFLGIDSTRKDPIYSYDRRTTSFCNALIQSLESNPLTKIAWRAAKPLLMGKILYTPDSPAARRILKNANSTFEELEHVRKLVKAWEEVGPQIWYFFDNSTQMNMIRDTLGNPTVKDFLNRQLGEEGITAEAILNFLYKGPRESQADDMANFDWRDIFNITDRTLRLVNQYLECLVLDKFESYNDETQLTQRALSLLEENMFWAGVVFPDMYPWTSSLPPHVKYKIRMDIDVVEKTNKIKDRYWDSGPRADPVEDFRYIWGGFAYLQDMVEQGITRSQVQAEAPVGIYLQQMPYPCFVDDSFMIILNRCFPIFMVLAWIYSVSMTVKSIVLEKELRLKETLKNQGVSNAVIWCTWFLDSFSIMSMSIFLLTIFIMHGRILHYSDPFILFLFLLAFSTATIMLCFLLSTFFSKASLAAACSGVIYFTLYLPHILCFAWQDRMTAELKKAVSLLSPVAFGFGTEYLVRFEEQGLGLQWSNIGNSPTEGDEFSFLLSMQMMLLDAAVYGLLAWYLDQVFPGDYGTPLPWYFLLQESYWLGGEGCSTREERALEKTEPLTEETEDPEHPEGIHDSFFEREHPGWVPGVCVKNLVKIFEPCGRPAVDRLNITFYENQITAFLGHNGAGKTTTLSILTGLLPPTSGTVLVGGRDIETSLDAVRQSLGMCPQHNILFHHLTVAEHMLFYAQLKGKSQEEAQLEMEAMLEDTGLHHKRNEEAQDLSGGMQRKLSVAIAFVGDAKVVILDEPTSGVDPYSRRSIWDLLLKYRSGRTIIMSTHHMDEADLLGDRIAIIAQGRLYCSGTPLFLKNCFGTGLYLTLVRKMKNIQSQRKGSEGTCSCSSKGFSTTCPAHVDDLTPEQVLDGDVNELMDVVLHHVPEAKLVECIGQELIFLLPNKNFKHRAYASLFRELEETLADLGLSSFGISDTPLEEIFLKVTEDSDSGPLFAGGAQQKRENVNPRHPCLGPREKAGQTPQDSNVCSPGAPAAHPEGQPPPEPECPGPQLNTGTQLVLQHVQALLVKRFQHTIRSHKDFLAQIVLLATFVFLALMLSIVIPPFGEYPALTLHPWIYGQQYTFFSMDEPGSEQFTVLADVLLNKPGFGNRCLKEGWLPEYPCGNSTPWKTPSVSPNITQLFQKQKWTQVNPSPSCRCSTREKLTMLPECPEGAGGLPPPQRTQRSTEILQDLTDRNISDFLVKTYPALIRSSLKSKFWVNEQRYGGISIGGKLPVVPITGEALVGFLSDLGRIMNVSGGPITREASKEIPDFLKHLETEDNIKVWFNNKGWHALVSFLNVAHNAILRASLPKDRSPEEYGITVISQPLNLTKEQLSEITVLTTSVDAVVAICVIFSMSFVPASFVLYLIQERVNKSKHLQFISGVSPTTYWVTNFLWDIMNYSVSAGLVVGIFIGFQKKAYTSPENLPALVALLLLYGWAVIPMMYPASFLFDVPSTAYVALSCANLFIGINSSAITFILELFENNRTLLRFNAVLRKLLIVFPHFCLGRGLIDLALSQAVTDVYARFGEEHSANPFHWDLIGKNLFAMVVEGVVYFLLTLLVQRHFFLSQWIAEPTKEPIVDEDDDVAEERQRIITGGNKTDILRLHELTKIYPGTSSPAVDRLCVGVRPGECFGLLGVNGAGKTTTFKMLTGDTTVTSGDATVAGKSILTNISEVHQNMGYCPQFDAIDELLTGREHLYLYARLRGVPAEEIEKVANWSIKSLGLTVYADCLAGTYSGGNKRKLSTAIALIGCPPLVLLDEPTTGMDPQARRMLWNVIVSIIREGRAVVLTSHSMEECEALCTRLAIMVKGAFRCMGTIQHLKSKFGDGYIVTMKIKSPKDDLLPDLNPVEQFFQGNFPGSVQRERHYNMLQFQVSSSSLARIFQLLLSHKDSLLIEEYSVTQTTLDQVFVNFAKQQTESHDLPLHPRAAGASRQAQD
T1 sequence (O95255 whole entry): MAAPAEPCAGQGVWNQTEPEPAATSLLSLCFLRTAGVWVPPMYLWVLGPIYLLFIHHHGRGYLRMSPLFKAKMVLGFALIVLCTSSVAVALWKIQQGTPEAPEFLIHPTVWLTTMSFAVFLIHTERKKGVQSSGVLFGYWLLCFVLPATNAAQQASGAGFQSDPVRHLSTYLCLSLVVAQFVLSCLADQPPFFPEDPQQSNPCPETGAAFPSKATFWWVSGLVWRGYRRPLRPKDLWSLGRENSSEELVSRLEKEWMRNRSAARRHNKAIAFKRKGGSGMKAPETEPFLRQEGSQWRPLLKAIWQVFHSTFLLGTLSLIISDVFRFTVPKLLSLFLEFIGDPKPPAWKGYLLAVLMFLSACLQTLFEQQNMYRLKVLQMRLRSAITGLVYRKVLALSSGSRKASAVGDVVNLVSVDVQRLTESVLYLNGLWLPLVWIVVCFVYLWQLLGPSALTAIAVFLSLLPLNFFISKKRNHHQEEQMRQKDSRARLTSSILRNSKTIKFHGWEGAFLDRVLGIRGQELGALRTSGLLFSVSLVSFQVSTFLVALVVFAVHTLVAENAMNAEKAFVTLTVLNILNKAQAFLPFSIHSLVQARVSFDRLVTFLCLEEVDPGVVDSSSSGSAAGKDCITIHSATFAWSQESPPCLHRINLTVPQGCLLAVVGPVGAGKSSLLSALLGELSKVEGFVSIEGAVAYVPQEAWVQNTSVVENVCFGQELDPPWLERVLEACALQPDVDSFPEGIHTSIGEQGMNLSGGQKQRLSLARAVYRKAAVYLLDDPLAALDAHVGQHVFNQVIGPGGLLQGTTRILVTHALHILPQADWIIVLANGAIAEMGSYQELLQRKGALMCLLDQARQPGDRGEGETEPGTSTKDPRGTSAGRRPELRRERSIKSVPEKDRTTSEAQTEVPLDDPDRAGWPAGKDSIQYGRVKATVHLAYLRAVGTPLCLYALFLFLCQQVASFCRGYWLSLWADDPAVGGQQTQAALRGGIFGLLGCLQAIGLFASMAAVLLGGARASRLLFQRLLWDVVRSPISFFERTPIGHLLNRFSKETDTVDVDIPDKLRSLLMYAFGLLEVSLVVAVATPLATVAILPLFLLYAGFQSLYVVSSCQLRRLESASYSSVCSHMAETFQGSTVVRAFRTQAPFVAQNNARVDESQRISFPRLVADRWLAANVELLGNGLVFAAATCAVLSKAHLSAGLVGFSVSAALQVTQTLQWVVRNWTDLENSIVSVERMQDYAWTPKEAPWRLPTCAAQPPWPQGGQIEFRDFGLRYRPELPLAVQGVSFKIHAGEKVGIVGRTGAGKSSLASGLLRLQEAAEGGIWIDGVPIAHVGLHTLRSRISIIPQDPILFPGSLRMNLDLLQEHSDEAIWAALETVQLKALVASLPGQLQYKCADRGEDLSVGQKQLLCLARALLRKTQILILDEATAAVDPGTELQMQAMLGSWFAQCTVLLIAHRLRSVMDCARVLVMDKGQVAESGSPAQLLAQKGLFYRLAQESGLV

Row | EC50 [1] [nM] | EC50 [2] [nM] | Structure (SMILES)
1 | 1000 to 10000 | > 25000 | Cc1cc(C)c(Oc2nc(N3CCN(C(=O)C4CC4)CC3)ccc2NS(C)(=O)=O)c(C2CC2)n1 [Compound I-20]
2 | < 1000 | < 1000 | Cc1cc(C2CC2)nc(C)c1Oc1nc(-c2cncc(Cl)c2)ccc1NS(C)(=O)=O [Compound I-37]
3 | 1000 to 10000 | 1000 to 10000 | Cc1cc(C2CC2)nc(C)c1Oc1nc(-c2cncc(S(C)(=O)=O)c2)ccc1NS(C)(=O)=O [Compound I-263]
4 | < 1000 | < 1000 | Cc1cc(C)c(Oc2nc(-c3cncc(Cl)c3)ccc2NS(=O)(=O)C2COC2)c(C)c1 [Compound I-41]
5 | ≥ 25000 | > 25000 | Cc1cc(C)c(Oc2nc(N3CC4(CN(C(=O)C5CC5)C4)C3)ccc2NS(C)(=O)=O)c(C)c1 [Compound I-38]
6 | < 1000 | < 1000 | Cc1cc(C)c(Oc2nc(-c3cncc(C#N)c3)ccc2NS(C)(=O)=O)c(C2CC2)n1 [Compound I-268]
7 | ≥ 25000 | 1000 to 10000 | Cc1cc(C2CC2)nc(C)c1Oc1nc(N2CCN(C(=O)C3CC3)CC2)ccc1NS(C)(=O)=O [Compound I-28]
8 | < 1000 | < 1000 | Cc1cc(C)c(Oc2nc(-c3cncc(C#N)c3)ccc2NS(C)(=O)=O)c(C)c1 [Compound I-39]
9 | 1000 to 10000 | < 25000 | Cc1cc(C(F)F)nc(C2CC2)c1Oc1nc(-c2cncc(C#N)c2)ccc1S(=O)(=O)NC1CCOCC1 [Compound I-320]
10 | 1000 to 10000 | < 1000 | Cc1cc(C)c(Oc2nc(N3CCn4c(cnc4C)C3)ccc2NS(C)(=O)=O)c(C)c1 [Compound I-30]
11 | < 1000 | < 25000 | Cc1cc(C)c(Oc2nc(-c3cncc(C#N)c3)cnc2NS(C)(=O)=O)c(C)c1 [Compound I-275]
12 | 1000 to 10000 | 10000 to 25000 | Cc1cc(C)c(Oc2nc(N3CC4CC3CN4C(=O)C3CC3)ccc2NS(C)(=O)=O)c(C)c1 (single isomer, unassigned) [Compound I-18]
13 | ≥ 25000 | > 25000 | Cc1cc(C)c(Oc2nc(N3CC4CC3CN4C(=O)C3CC3)ccc2NS(C)(=O)=O)c(C)c1 (single isomer, unassigned) [Compound I-19]
14 | ≥ 25000 | 1000 to 10000 | Cc1cc(C)c(Oc2[nH]c(-c3cncc(C#N)c3)cc(=O)c2NS(C)(=O)=O)c(C)n1 [Compound I-325]
15 | < 1000 | < 1000 | Cc1cc(C)c(Oc2nc(-c3cncc(C#N)c3)c(O)cc2NS(C)(=O)=O)c(C)n1 [Compound I-327]
16 | < 1000 | 1000 to 10000 | CCCS(=O)(=O)Nc1ccc(-c2cncc(C#N)c2)nc1Oc1c(C)cc(C)nc1C [Compound I-242]
17 | 1000 to 10000 | < 25000 | Cc1cc(C)c(Oc2nc(-c3cc(C#N)cnc3C)ccc2NS(C)(=O)=O)c(C)n1 [Compound I-270]
18 | < 1000 | < 1000 | Cc1cc(C)c(Oc2nc(-c3cncc(C#N)c3)ccc2NS(=O)(=O)C2CCC2)c(C)n1 [Compound I-243]
19 | < 1000 | < 1000 | Cc1cc(C)c(Oc2nc(-n3cc(C#N)cn3)ccc2NS(C)(=O)=O)c(C)c1 [Compound I-274]

Row | Structure (SMILES) | EC50 [1] [nM] | EC50 [2] [nM]
20 | Cc1cc(C)c(Oc2nc(N3CC4CC(C3)N4C(=O)C3CC3)ccc2NS(C)(=O)=O)c(C)c1 [Compound I-22] | 1000 to 10000 | 1000 to 10000
21 | Cc1cc(C)c(Oc2nc(N3C4CC3CN(C(=O)C3CC3)C4)ccc2NS(C)(=O)=O)c(C)c1 [Compound I-35] | ≥ 25000 | > 25000
